Test results as given in patent US11707530B2, “Ligand capable of multivalently binding to glutamine transporter, and composition comprising same” (TOKYO INSTITUTE OF TECHNOLOGY, priority 2016, dated 2023).

Assays:
ASCT2 [1] = molecular target: T1, ASCT2 (Homo sapiens, UniProt Q15758); settings: background statement; read-out: Km (Michaelis constant, affinity for ASCT2); cited from earlier work
T1 sequence (Q15758 1-541): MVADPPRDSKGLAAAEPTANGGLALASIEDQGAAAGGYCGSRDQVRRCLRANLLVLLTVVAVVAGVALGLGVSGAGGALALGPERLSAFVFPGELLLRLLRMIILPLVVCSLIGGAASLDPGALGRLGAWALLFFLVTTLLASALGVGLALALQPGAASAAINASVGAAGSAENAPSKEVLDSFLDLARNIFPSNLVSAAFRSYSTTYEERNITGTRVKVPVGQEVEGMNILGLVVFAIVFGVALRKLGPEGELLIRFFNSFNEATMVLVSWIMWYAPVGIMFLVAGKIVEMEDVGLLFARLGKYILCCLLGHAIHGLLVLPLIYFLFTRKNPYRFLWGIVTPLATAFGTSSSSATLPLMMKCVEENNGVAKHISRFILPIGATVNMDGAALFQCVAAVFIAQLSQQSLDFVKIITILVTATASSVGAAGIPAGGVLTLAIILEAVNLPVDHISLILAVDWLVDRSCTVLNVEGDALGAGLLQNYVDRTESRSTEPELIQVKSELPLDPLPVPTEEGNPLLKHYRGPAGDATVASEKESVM

ASCT2 [2] = molecular target: T1, ASCT2; test: Antibody labeling of Bx-PC3 cells after incubation in Bzl-Ser solution; assay type: cell-based; set-up: endogenous in cells; host or cells: Bx-PC3 (BxPC-3) pancreatic cancer cells; settings: 50 mM Bzl-Ser

Row | SMILES | Km (ASCT2 [1]) [µM] | antibody labeling, cells incubated in Bzl-Ser solution vs PBS+10% FBS (ASCT2 [2])
1 | NC(=O)CC[C@H](N)C(=O)O [glutamine, L-glutamine] | 20 | –
2 | N[C@@H](COCc1ccccc1)C(=O)O [Bzl-Ser, O-benzyl-L-serine] | – | no difference observed
